Assay results from patent US20020032178A1 (priority 2000, published 2002).

melting point: 134 to 137 °C
Structure (SMILES): COC(=O)c1cccc(/C=N/NC(=O)c2ccc(C)cc2)c1O [I-2]
